Results as given in patent US10711007B2, “Selective inhibitors of protein arginine methyltransferase 5 (PRMT5)” (Prelude Therapeutics, Incorporated, priority 2018, dated 2020).
pIC50: −log10 of the molar value.

Columns and labels:
[1] = target: PRMT5/MEP50 complex (Homo sapiens (Human), UniProt O14744); assay: Biochemical assay: PRMT5/MEP50 methylation of histone H4 based AcH4-23, SPA readout; conditions: PRMT5/MEP50 2.5 nM, 300 nM AcH4-23, 1 μM 3H-SAM
Summary of the method: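 PRMT5/MEP50 (2.5 nM final) preincubated with compound 20 min at 37°C alongside 300 nM AcH4-23 peptide. Reaction started with 1 µM [3H-methyl]-SAM, run 30 min at 37°C and quenched with guanidine HCl. Streptavidin SPA beads, scintillation counting; IC50 from four-parameter Hill fit.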

[2] = system: γ-globin expression in erythroid progenitors; assay: γ-globin induction by quantitative PCR in human erythroid progenitor cells; type: cell-based; conditions: 9 days of treatment, N=1
Description: Compounds were dissolved in DMSO to make 10 mM stock solutions, and further diluted to make 1 mM and 0.1 mM stocks.
(§1) Human erythroid progenitor cells were generated from purified CD34+ cells from mobilized peripheral blood purchased from AllCells. CD34+ cells were cultured in StemSpan SFEM II (StemCell Technologies, Catalog #09605) supplemented with 100 ng/ml FLT3 ligand (R&D systems, Catalog #308-FK), 100 ng/ml SCF (R&D systems, Catalog #255-SC), 20 ng/ml IL-3 (R&D systems, Catalog #203-IL), 20 ng/ml IL-6 (R&D systems, Catalog #206-IL) for 6 days, then reseeded into the same medium supplemented with 20 ng/ml SCF, 5 ng/ml IL-3, 1 U/ml EPO (R&D systems, Catalog #287-TC), 2 μM dexamethasone (Sigma-Aldrich, Catalog # D4902), 1 μM β-estradiol (Sigma-Aldrich, Catalog # E2758). Cells were treated with 0.1 and 1 μM compound from Day 8 of differentiation. Media and compound were renewed every 3 days and cells were collected for RNA isolation after 9 days of treatment.
Assessment of γ-Globin Induction by Quantitative PCR
RNA was isolated using Quick-RNA Microprep kit (Zymo Research, Catalog # Z1050), cDNA was synthesized using qScript cDNA SuperMix (Quantabio, Catalog #95048). Quantitative PCR for y-globin was performed using PerfeCTa SYBR Green FastMix (Quantabio, Catalog #95071) on Bio-Rad CFX Connect Real-Time PCR Detection System. […]

[3] = system: fetal hemoglobin expressing erythroid cells (% F cells); assay: % F cells by flow cytometry in human erythroid cells; type: cell-based; conditions: erythroid progenitors, Day 7 of treatment, N=1
Description: as §1
Assessment of % F Cells by Flow Cytometry
Human erythroid cells were collected on Day 7 of treatment with compound. Cells were fixed in 0.05% glutaraldehyde (Electron Microscopy Sciences, Catalog #16019), permeabilized with 0.1% Triton-X and stained with FITC-conjugated antibody directed to fetal hemoglobin (ThermoFisher, Catalog # MHFH01). Analysis of fetal hemoglobin expressing erythroid cells (% F cells) was performed on an Attune Nxt flow cytometer (ThermoFisher).

[4] = system: sDMA (SmD3me2s) in human PBMCs; assay: Western blotting for sDMA in PHA-L activated human PBMCs; type: cell-based; conditions: PBMC, 72 h, 3 days
Description: Compound Titration and Cell Culture:
Compounds were dissolved in DMSO to make 10 mM stock solutions. Human peripheral blood mononuclear cells (PBMCs) from healthy donors were purchased from AllCells (Emeryville, Calif.), maintained in RPMI 1640 (Corning Cellgro, Catalog #: 10-040-CV) supplemented with 10% v/v heat-inactivated FBS (GE Healthcare, Catalog #: SH30910.03), 2 mM L-Glutamine (Corning Cellgro, Catalog #25005CV) and 1× Penicillin-Streptomycin (Sigma-Aldrich, Catalog # P4333) in a CO2 incubator (5% CO2) at 37° C.
To Determine Enzyme Inhibition IC50 Values in Human PBMCs:
Freshly thawed cells were seeded at a density of 25×10^5 cells/ml in 2 ml of media in a 12 well plate. Cells were activated by addition of 5 μg/ml PHA-L (Sigma-Aldrich, Catalog # L4144) for 3 days. A series of 8-point, 3-fold dilutions of compound were dispensed into wells from 1 mM stock solution using TECAN digital dispenser (D300e) and concentration of DMSO was normalized to 0.1%. […]
Cells were harvested 3 days later, resuspended in 15 μL PBS, lysed in 4% SDS, and homogenized by passing through homogenizer column (Omega Biotek, Catalog #: HCR003). Total protein concentration were determined by BCA assay (ThermoFisher Scientific, Catalog #: 23225). […] SmD3me2s bands were quantified by ImageJ. […] IC50 values were calculated using Graphpad Prism ([Inhibitor] vs. normalized response-Variable slope).

PRMT5/MEP50 complex, sequence (O14744 whole entry): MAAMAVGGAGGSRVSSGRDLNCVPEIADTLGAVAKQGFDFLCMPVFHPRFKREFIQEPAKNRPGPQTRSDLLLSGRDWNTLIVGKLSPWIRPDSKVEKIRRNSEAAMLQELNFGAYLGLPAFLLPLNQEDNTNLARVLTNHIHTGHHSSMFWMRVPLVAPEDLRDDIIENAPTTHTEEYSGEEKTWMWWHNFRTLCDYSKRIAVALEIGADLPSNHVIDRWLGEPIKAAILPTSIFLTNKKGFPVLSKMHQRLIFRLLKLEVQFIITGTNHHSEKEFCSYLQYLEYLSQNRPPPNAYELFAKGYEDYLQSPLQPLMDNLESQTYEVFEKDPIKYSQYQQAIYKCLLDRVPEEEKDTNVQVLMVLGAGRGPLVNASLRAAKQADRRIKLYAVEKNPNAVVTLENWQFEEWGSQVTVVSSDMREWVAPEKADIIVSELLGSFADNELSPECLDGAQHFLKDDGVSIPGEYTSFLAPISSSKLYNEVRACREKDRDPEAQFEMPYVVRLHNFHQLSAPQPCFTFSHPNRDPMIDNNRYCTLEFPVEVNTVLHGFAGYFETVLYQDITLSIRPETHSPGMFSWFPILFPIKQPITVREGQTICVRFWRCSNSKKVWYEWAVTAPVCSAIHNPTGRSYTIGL
PRMT5/MEP50 complex, sequence (Q9BQA1 whole entry partner): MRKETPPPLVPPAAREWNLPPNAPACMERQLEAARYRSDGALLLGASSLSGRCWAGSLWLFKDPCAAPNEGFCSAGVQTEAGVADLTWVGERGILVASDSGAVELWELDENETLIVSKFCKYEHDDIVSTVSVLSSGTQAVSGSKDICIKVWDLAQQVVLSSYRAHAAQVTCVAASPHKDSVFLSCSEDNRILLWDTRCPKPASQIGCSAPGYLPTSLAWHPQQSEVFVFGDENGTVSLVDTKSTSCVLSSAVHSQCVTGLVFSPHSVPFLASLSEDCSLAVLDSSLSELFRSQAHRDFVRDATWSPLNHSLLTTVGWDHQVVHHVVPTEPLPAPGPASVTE

pIC50 [1]: 9.00
SMILES: Nc1ncnc2c1ccn2[C@@H]1O[C@H]([C@@H]2OCc3ccc(Cl)cc32)[C@@H](O)[C@H]1O [Example 5, (2R,3R,4S,5S)-2-(4-amino-7H-pyrrolo[2,3-d]pyrimidin-7-yl)-5-((R)-6-chloro-1,3-dihydroisobenzofuran-1-yl)tetrahydrofuran-3,4-diol]
increase in expression of γ-globin ([2]; 0.1 μM): 1.5 fold | increase in expression of γ-globin ([2]; 1 μM): 2 fold | increase in % F cells compared to DMSO treated control ([3]; 0.1 μM): 1.3 fold | increase in % F cells compared to DMSO treated control ([3]; 1 μM): 3 fold | pIC50 [4]: 7.80
